Test results reported in BindingDB's records for doi:10.1021/jm0204587 (University of Pennsylvania, 2003).

molecular target: T1, Dimer of Gag-Pol polyprotein [501-599] (Human immunodeficiency virus 1, UniProt P03367); assay: Protease Inhibition Assay; conditions: pH 5.5; 30 °C
T1 construct: 501-599
Protocol: All enzyme assays were performed under initial velocity and steady-state conditions. The conditions for the enzyme catalyzed hydrolysis of the cleavage site peptide VSQN-(beta-naphthylalanine)-PIV were established with respect to time and enzyme concentration to yield linear initial velocity data. […] The detection of product was monitored with fluorescence (excitation 270 nm, emission 330 nm).

Going from `O=C(N[C@@H](Cc1ccccc1)[C@@H](O)C[C@@H](Cc1ccccc1)C(=O)NC1c2ccccc2C[C@H]1O)O[C@H]1CCOC1` (stereo partly drawn) [(3S)-oxolan-3-yl N-[(2S,3S,5R)-5-benzyl-3-hydroxy-5-{[(2R)-2-hydroxy-2,3-dihydro-1H-inden-1-yl]carbamoyl}-1-phenylpentan-2-yl]carbamate] to `CC(C)(C)OC(=O)N[C@@H](Cc1ccccc1)[C@@H](O)C[C@@H](Cc1ccccc1)C(=O)NC1c2ccccc2C[C@H]1O` (stereo partly drawn) [tert-butyl N-[(2S,3S,5R)-5-benzyl-3-hydroxy-5-{[(2R)-2-hydroxy-2,3-dihydro-1H-inden-1-yl]carbamoyl}-1-phenylpentan-2-yl]carbamate], the IC50 rises from 0.03 nM to 0.3 nM (10-fold). The first is the more potent here.

Compared with `CC(C)C[C@@]1(C2C=N[C@@](Cc3ccccc3)(C[C@H](O)[C@H](Cc3ccccc3)NC(=O)O[C@H]3CCOC3)C2=O)N=CC([C@@H](Cc2ccccc2)C(N)=O)C1=O` (some centres not stated) [Pyrrolinone deriv. 2], `CC(C)C[C@@]1(C2C=N[C@@](Cc3ccccc3)(C[C@H](O)[C@H](Cc3ccccc3)NC(=O)OC(C)(C)C)C2=O)N=CC([C@@H](Cc2ccccc2)C(N)=O)C1=O` (some centres not stated) [Pyrrolinone deriv. 1] is 7.7-fold higher in IC50: 1.3 nM for the first, 10 nM for the second. The first is the more potent here.

First: CC(C)(C)OC(=O)N[C@@H](Cc1ccccc1)[C@@H](O)C[C@]1(Cc2ccccc2)N=CC(C2c3ccccc3C[C@H]2O)C1=O (some centres not stated) [Pyrrolinone deriv. 6]
Second: O=C(N[C@@H](Cc1ccccc1)[C@@H](O)C[C@]1(Cc2ccccc2)N=CC(C2c3ccccc3C[C@H]2O)C1=O)O[C@H]1CCOC1 (stereo partly drawn) [(3S)-oxolan-3-yl N-[(2S,3S)-4-[(2S)-2-benzyl-4-[(2R)-2-hydroxy-2,3-dihydro-1H-inden-1-yl]-3-oxo-2,3-dihydro-1H-pyrrol-2-yl]-3-hydroxy-1-phenylbutan-2-yl]carbamate]
The IC50 of the first is 6-fold higher: 11.9 nM for the first, 2 nM for the second. The second is the more potent here.

`CC(C)C[C@H](NC(=O)[C@H](Cc1ccccc1)C[C@H](O)[C@H](Cc1ccccc1)NC(=O)OC(C)(C)C)C(=O)N[C@@H](Cc1ccccc1)C(N)=O` [Hydroxyethylene dipeptide isostere] was tested, and the IC50 was 0.6 nM.
